Measured values: publication PMC4823954, “From fighting depression to conquering tumors: a novel tricyclic thiazepine compound as a tubulin polymerization inhibitor” (Cell Death & Disease, 2016)

Key:
Assay in all cases: KINOMEscan
Type in all cases: binding
Settings in all cases: read-out: % Ctrl
[1] = biological target: T1, ABL1(H396P)-nonphosphorylated (Homo sapiens, UniProt P00519, H396P)
T1 construct: purchased DiscoveRx KINOMEscan
Experimental: (§1) The binding assay for 442 non-mutant kinases was performed using KINOMEscan (DiscoveRx Corporation, Fremont, CA, USA) as reported previously.[58], [59] TBPT was screened at concentrations of 5 and 10 μM to identify the affected kinases. KINOMEscan is based on a competition reaction that quantitatively measures the ability of a test compound to compete with an active site-directed ligand for binding to the kinase active site. […] After the assay plates were incubated with shaking for 1 h, the liganded beads were washed with washing buffer (1 × PBS and 0.05% Tween 20). Then, the beads were re-suspended in elution buffer (1 × PBS, 0.05% Tween 20, and 0.5 μM ligand) and incubated with shaking for 30 min. The kinase concentration in the eluates was measured via qPCR. The results are represented as ‘%Ctrl', which was calculated using the following formula: (test compound signal–positive control signal)/(DMSO signal–positive control signal) × 100%. A lower % Ctrl indicates stronger binding to the kinase active site.

[2] = biological target: T2, ABL1-phosphorylated (Homo sapiens, UniProt P00519)
T2 construct: purchased DiscoveRx KINOMEscan
Experimental: as §1

[3] = biological target: T3, ACVRL1 (Homo sapiens, UniProt P37023)
T3 construct: purchased DiscoveRx KINOMEscan
Experimental: as §1

[4] = biological target: T4, AMPK-alpha2 (Homo sapiens, UniProt P54646)
T4 construct: purchased DiscoveRx KINOMEscan
Experimental: as §1

[5] = biological target: T5, BRK (Homo sapiens, UniProt Q13882)
T5 construct: purchased DiscoveRx KINOMEscan
Experimental: as §1

[6] = biological target: T6, CAMK1G (Homo sapiens, UniProt Q96NX5)
T6 construct: purchased DiscoveRx KINOMEscan
Experimental: as §1

[7] = biological target: T7, CAMK2B (Homo sapiens, UniProt Q13554)
T7 construct: purchased DiscoveRx KINOMEscan
Experimental: as §1

[8] = biological target: T8, CSNK1D (Homo sapiens, UniProt P48730)
T8 construct: purchased DiscoveRx KINOMEscan
Experimental: as §1

[9] = biological target: T9, DDR1 (Homo sapiens, UniProt Q08345)
T9 construct: purchased DiscoveRx KINOMEscan
Experimental: as §1

[10] = biological target: T10, EPHA1 (Homo sapiens, UniProt P21709)
T10 construct: purchased DiscoveRx KINOMEscan
Experimental: as §1

[11] = biological target: T11, ERBB4 (Homo sapiens, UniProt Q15303)
T11 construct: purchased DiscoveRx KINOMEscan
Experimental: as §1

[12] = biological target: T12, GSK3A (Homo sapiens, UniProt P49840)
T12 construct: purchased DiscoveRx KINOMEscan
Experimental: as §1

[13] = biological target: T13, KIT(V559D,T670I) (Homo sapiens, UniProt P10721, T670I/V559D)
T13 construct: purchased DiscoveRx KINOMEscan
Experimental: as §1

[14] = biological target: T14, LCK (Homo sapiens, UniProt P06239)
T14 construct: purchased DiscoveRx KINOMEscan
Experimental: as §1

[15] = biological target: T15, MAP3K1 (Homo sapiens, UniProt Q13233)
T15 construct: purchased DiscoveRx KINOMEscan
Experimental: as §1

[16] = biological target: T16, MAP3K4 (Homo sapiens, UniProt Q9Y6R4)
T16 construct: purchased DiscoveRx KINOMEscan
Experimental: as §1

[17] = biological target: T17, MLK1 (Homo sapiens, UniProt P80192)
T17 construct: purchased DiscoveRx KINOMEscan
Experimental: as §1

[18] = biological target: T18, MST2 (Homo sapiens, UniProt Q13188)
T18 construct: purchased DiscoveRx KINOMEscan
Experimental: as §1

[19] = biological target: T19, MYLK2 (Homo sapiens, UniProt Q9H1R3)
T19 construct: purchased DiscoveRx KINOMEscan
Experimental: as §1

[20] = biological target: T20, OSR1 (Homo sapiens, UniProt O95747)
T20 construct: purchased DiscoveRx KINOMEscan
Experimental: as §1

[21] = biological target: T21, PFPK5(P.falciparum) (Plasmodium falciparum, UniProt P61075)
T21 construct: purchased DiscoveRx KINOMEscan
Experimental: as §1

[22] = biological target: T22, PIK3C2B (Homo sapiens, UniProt O00750)
T22 construct: purchased DiscoveRx KINOMEscan
Experimental: as §1

[23] = biological target: T23, PRKCI (Homo sapiens, UniProt P41743)
T23 construct: purchased DiscoveRx KINOMEscan
Experimental: as §1

[24] = biological target: T24, PRKG1 (Homo sapiens, UniProt Q13976)
T24 construct: purchased DiscoveRx KINOMEscan
Experimental: as §1

[25] = biological target: T25, PYK2 (Homo sapiens, UniProt Q14289)
T25 construct: purchased DiscoveRx KINOMEscan
Experimental: as §1

[26] = biological target: T26, RIPK1 (Homo sapiens, UniProt Q13546)
T26 construct: purchased DiscoveRx KINOMEscan
Experimental: as §1

[27] = biological target: T27, SGK3 (Homo sapiens, UniProt Q96BR1)
T27 construct: purchased DiscoveRx KINOMEscan
Experimental: as §1

[28] = biological target: T28, STK16 (Homo sapiens, UniProt O75716)
T28 construct: purchased DiscoveRx KINOMEscan
Experimental: as §1

[29] = biological target: T29, STK35 (Homo sapiens, UniProt Q8TDR2)
T29 construct: purchased DiscoveRx KINOMEscan
Experimental: as §1

[30] = biological target: T30, TNNI3K (Homo sapiens, UniProt Q59H18)
T30 construct: purchased DiscoveRx KINOMEscan
Experimental: as §1

T25 sequence (Q14289 whole entry): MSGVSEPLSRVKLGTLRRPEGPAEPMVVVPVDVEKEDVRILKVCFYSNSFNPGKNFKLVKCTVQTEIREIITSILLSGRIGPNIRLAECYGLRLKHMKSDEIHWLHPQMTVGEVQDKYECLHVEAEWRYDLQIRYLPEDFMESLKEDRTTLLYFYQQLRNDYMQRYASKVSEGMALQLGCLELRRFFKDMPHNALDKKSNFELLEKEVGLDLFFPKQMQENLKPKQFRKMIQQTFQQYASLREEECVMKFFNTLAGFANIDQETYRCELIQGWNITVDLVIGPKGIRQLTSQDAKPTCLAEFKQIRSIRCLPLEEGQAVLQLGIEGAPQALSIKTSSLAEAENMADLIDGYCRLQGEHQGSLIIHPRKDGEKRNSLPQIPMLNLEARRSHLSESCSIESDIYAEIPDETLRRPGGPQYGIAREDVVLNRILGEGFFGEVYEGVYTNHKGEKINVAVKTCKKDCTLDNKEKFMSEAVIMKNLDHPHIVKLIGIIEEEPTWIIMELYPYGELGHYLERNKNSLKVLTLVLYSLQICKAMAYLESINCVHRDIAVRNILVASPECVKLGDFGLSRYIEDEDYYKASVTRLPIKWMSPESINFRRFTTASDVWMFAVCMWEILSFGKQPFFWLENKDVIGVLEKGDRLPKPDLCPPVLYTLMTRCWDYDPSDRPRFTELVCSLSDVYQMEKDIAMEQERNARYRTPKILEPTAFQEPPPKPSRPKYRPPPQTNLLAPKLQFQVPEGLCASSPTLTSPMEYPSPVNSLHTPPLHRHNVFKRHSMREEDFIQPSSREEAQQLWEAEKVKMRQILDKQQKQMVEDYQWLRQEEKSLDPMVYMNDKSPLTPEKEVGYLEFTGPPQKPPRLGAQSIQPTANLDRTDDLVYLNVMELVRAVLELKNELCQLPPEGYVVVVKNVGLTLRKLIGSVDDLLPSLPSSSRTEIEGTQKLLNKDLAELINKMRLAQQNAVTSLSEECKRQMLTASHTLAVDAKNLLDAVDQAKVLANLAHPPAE
T5 sequence (Q13882 whole entry): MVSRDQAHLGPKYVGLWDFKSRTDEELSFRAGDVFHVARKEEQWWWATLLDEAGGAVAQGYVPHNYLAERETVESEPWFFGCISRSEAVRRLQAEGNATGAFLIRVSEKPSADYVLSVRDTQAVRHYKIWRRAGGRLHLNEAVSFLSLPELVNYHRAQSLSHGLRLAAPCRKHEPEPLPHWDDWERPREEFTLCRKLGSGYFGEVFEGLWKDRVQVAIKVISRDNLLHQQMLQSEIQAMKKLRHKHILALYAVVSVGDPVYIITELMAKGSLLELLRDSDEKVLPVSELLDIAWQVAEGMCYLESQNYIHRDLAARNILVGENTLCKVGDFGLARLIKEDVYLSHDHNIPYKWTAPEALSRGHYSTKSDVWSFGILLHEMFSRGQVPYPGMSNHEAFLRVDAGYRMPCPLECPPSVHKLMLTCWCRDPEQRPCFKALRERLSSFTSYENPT
T19 sequence (Q9H1R3 whole entry): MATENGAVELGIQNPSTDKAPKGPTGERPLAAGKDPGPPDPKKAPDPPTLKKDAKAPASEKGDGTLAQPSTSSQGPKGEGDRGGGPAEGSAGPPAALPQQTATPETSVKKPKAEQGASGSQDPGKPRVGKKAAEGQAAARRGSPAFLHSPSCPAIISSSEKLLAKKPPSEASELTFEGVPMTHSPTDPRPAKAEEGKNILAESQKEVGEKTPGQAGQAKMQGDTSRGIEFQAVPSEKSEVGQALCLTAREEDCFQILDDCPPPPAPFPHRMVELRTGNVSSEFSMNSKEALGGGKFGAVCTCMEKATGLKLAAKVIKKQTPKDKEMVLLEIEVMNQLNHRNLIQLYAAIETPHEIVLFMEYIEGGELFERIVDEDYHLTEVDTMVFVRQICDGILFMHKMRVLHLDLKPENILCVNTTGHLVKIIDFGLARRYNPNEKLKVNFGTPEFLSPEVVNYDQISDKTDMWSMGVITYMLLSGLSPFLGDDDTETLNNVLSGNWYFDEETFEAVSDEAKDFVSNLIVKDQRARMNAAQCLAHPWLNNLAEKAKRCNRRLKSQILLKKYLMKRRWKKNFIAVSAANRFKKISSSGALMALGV
T6 sequence (Q96NX5 whole entry): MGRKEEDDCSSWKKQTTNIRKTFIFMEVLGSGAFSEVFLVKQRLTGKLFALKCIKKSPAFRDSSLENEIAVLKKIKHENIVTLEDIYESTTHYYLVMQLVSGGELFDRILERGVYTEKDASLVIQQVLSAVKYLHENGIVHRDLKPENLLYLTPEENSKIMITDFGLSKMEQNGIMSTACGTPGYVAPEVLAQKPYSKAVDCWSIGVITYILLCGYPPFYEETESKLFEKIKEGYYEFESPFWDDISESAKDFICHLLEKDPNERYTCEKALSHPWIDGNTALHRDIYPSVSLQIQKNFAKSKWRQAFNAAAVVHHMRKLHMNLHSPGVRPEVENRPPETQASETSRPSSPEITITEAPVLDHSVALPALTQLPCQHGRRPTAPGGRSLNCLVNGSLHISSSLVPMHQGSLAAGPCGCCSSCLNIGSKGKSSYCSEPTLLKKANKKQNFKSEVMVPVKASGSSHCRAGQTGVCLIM
T26 sequence (Q13546 whole entry): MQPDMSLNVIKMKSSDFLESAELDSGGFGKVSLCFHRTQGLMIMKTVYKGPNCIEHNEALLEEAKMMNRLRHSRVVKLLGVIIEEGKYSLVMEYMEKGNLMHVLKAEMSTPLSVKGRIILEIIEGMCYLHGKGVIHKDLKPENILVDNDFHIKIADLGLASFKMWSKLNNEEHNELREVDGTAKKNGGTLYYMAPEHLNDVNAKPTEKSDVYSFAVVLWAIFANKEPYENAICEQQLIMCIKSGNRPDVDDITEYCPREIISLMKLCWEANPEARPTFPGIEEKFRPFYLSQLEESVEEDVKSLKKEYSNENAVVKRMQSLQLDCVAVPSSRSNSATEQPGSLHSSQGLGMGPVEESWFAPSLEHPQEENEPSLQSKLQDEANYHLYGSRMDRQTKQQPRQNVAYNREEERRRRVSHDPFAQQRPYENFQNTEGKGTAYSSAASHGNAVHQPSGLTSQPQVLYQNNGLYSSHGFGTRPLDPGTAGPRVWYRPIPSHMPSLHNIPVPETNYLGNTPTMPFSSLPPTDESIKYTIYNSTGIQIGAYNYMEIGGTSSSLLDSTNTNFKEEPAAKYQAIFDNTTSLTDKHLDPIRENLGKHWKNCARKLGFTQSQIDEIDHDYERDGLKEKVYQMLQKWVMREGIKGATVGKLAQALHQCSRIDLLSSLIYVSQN
T22 sequence (O00750 whole entry): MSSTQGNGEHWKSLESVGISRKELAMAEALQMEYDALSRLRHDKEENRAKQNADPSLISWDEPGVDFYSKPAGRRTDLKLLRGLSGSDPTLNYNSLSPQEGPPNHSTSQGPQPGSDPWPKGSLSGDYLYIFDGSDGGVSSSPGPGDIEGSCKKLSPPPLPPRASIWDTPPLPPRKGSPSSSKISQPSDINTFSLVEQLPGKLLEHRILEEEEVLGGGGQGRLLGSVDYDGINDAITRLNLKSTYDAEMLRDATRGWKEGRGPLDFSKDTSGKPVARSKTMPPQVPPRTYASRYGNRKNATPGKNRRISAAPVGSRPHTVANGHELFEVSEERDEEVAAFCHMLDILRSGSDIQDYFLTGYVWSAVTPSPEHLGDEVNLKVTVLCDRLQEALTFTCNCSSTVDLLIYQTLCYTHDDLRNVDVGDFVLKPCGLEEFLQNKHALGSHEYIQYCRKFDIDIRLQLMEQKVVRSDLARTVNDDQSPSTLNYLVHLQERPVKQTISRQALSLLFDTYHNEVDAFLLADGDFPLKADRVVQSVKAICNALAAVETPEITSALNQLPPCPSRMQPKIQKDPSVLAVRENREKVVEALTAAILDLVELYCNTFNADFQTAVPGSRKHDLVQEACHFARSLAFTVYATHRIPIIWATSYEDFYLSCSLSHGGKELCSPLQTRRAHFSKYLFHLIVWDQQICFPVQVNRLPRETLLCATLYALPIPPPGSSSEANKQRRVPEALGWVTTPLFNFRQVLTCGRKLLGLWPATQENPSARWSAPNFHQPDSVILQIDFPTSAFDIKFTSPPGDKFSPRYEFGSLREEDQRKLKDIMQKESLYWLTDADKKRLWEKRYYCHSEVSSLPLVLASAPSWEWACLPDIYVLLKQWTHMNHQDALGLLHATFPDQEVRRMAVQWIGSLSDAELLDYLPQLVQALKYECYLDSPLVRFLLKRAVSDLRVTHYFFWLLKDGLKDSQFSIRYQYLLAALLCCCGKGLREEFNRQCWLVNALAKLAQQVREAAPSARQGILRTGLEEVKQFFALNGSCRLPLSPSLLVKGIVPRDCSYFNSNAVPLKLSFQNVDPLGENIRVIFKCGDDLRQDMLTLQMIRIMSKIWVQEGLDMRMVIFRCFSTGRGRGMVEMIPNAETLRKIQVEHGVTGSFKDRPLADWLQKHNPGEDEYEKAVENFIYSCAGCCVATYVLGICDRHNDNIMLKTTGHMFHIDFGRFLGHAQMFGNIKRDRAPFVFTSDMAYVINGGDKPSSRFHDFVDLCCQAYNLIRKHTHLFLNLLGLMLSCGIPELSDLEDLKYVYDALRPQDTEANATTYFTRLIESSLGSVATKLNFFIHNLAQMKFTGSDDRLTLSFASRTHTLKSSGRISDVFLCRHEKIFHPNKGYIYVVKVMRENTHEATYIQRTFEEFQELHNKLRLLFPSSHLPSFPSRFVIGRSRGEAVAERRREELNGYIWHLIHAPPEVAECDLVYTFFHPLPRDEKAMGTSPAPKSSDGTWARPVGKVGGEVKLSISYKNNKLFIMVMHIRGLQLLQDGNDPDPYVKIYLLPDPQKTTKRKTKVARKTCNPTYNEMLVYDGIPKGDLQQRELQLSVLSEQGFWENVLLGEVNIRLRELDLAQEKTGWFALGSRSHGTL

SMILES: Cc1ccc(C2=Nc3cccnc3S(=O)(=O)c3ccccc32)cc1 [TBPT, 6-(p-tolyl)benzo[f] pyrido[2,3-b][1,4] thiazepine 11,11-dioxide]
- remaining binding at 5 µM ([1]; 5 μM): 62%
- remaining binding at 10 µM ([1]; 10 μM): 77%
- remaining binding at 5 µM ([2]; 5 μM): 72%
- remaining binding at 10 µM ([2]; 10 μM): 97%
- remaining binding at 5 µM ([3]; 5 μM): 100%
- remaining binding at 10 µM ([3]; 10 μM): 71%
- remaining binding at 5 µM ([4]; 5 μM): 81%
- remaining binding at 10 µM ([4]; 10 μM): 95%
- remaining binding at 5 µM ([5]; 5 μM): 100%
- remaining binding at 10 µM ([5]; 10 μM): 98%
- remaining binding at 5 µM ([6]; 5 μM): 100%
- remaining binding at 10 µM ([6]; 10 μM): 100%
- remaining binding at 5 µM ([7]; 5 μM): 100%
- remaining binding at 10 µM ([7]; 10 μM): 100%
- remaining binding at 5 µM ([8]; 5 μM): 98%
- remaining binding at 10 µM ([8]; 10 μM): 90%
- remaining binding at 5 µM ([9]; 5 μM): 100%
- remaining binding at 10 µM ([9]; 10 μM): 92%
- remaining binding at 5 µM ([10]; 5 μM): 100%
- remaining binding at 10 µM ([10]; 10 μM): 94%
- remaining binding at 5 µM ([11]; 5 μM): 93%
- remaining binding at 10 µM ([11]; 10 μM): 99%
- remaining binding at 5 µM ([12]; 5 μM): 100%
- remaining binding at 10 µM ([12]; 10 μM): 100%
- remaining binding at 5 µM ([13]; 5 μM): 94%
- remaining binding at 10 µM ([13]; 10 μM): 100%
- remaining binding at 5 µM ([14]; 5 μM): 97%
- remaining binding at 10 µM ([14]; 10 μM): 100%
- remaining binding at 5 µM ([15]; 5 μM): 100%
- remaining binding at 10 µM ([15]; 10 μM): 100%
- remaining binding at 5 µM ([16]; 5 μM): 99%
- remaining binding at 10 µM ([16]; 10 μM): 96%
- remaining binding at 5 µM ([17]; 5 μM): 100%
- remaining binding at 10 µM ([17]; 10 μM): 100%
- remaining binding at 5 µM ([18]; 5 μM): 63%
- remaining binding at 10 µM ([18]; 10 μM): 100%
- remaining binding at 5 µM ([19]; 5 μM): 100%
- remaining binding at 10 µM ([19]; 10 μM): 82%
- remaining binding at 5 µM ([20]; 5 μM): 100%
- remaining binding at 10 µM ([20]; 10 μM): 87%
- remaining binding at 5 µM ([21]; 5 μM): 97%
- remaining binding at 10 µM ([21]; 10 μM): 97%
- remaining binding at 5 µM ([22]; 5 μM): 100%
- remaining binding at 10 µM ([22]; 10 μM): 100%
- remaining binding at 5 µM ([23]; 5 μM): 95%
- remaining binding at 10 µM ([23]; 10 μM): 91%
- remaining binding at 5 µM ([24]; 5 μM): 96%
- remaining binding at 10 µM ([24]; 10 μM): 100%
- remaining binding at 5 µM ([25]; 5 μM): 100%
- remaining binding at 10 µM ([25]; 10 μM): 100%
- remaining binding at 5 µM ([26]; 5 μM): 100%
- remaining binding at 10 µM ([26]; 10 μM): 100%
- remaining binding at 5 µM ([27]; 5 μM): 100%
- remaining binding at 10 µM ([27]; 10 μM): 99%
- remaining binding at 5 µM ([28]; 5 μM): 99%
- remaining binding at 10 µM ([28]; 10 μM): 91%
- remaining binding at 5 µM ([29]; 5 μM): 97%
- remaining binding at 10 µM ([29]; 10 μM): 100%
- remaining binding at 5 µM ([30]; 5 μM): 100%
- remaining binding at 10 µM ([30]; 10 μM): 89%
